In ChEMBL document CHEMBL1250430, “Synthesis, semipreparative HPLC separation, biological evaluation, and 3D-QSAR of hydrazothiazole derivatives as human monoamine oxidase B inhibitors” (Bioorg Med Chem, 2010):
Several values for one entry are separate records, joined by “and”; a condition that tells them apart may be missing. Equal entries are not always repeated.

Target: T1, Amine oxidase [flavin-containing] A (Homo sapiens, UniProt P21397)
T1 sequence (P21397 whole entry): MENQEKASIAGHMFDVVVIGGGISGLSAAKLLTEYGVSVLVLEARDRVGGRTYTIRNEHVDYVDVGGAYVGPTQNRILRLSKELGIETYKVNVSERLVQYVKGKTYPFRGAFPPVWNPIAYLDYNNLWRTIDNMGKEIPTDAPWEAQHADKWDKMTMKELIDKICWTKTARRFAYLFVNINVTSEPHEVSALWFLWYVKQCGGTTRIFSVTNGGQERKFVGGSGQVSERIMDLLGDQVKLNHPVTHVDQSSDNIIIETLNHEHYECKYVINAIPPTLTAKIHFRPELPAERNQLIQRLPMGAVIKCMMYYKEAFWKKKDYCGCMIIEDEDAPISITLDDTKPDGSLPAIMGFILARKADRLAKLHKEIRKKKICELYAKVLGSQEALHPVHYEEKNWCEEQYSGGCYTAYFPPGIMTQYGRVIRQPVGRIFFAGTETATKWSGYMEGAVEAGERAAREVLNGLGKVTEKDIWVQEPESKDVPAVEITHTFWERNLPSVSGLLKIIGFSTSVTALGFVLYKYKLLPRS
Experiment: not given
Conditions: bti-tn-5b1-4

Structure (SMILES) | IC50
CC1CCC(=NNc2nc(-c3ccc(Cl)cc3Cl)cs2)CC1 (centres undefined) | 81.5 µM

Target: T1, Amine oxidase [flavin-containing] A
Experiment: biochemical
Conditions: not given

Structure (SMILES) | IC50
O=[N+]([O-])c1ccc(-c2csc(NN=C3CCCCCC3)n2)cc1 | 17.9 µM
Clc1ccc(-c2csc(NN=C3CCCC3)n2)c(Cl)c1 | 54.5 µM
Fc1ccc(-c2csc(NN=C3CCCCCC3)n2)c(F)c1 | 7.23 µM
Clc1ccc(-c2csc(NN=C3CCCCCC3)n2)c(Cl)c1 | 59.3 µM
N#Cc1ccc(-c2csc(NN=C3CCCC3)n2)cc1 | 0.644 µM
O=[N+]([O-])c1ccc(-c2csc(NN=C3CCCC3)n2)cc1 | 0.344 µM
Fc1ccc(-c2csc(NN=C3CCCCC3)n2)c(F)c1 | 45.8 µM
Fc1ccc(-c2csc(NN=C3CCCC3)n2)c(F)c1 | 2.29 µM and 2.32 µM
